This is an account of results in patent US7435837B2, “Dihydrobenzofuranyl alkanamine derivatives and methods for using same” (Wyeth, priority 2003, dated 2008).

For one assay, the target named is T1, human 5-HT2C receptor (Homo sapiens, UniProt P28335).
T1 sequence (P28335 33-458): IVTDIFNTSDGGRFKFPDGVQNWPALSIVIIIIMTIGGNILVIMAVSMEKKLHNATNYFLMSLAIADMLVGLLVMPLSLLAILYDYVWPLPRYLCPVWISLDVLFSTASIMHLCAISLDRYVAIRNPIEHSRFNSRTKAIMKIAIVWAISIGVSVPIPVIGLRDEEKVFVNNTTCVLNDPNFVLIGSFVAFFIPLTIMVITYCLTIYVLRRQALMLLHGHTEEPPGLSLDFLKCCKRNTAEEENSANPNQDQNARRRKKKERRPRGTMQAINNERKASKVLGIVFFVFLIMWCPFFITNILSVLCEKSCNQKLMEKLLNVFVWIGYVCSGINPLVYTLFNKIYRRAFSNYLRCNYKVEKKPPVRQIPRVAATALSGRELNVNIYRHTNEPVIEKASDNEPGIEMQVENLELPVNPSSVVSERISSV
Briefly: 5-HT2C receptor-stimulated calcium mobilization (FLIPR) in CHO cells.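 For all read-outs here: Fluo-3-AM fluorescence read on FLIPR every 1 s, agonist added after 10 baseline reads, response taken as peak minus lowest raw fluorescence count.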 The class given is cell-based. To be noted: for Emax: CHO; for EC50: calcium mobilization, CHO cells stably expressing human 5-HT2C, read-out: 5-HT2C Function EC50. A general note: Calcium assays in cells follow changes in intracellular calcium, usually with a dye or a luminescent sensor.

For assay [1], the target named is T2, human 5-hydroxytryptamine-2C (h5-HT2C) receptor (Homo sapiens, UniProt P28335).
T2 construct: expressed in transfected cells; host or cells: CHO (Chinese Hamster Ovary) cells; membranes
T2 sequence (P28335 33-458): T1 sequence (P28335 33-458)
Briefly: [125I]DOI binding to membranes of CHO cells expressing the human 5-HT2C receptor. As to conditions: [125I]DOI radioligand, CHO cell membranes, room temperature 60 min; read-out: 5-HT2C Affinity Ki.

[2] abbreviates: percentage of the response observed with a maximally effective concentration of 5-HT, read-out: 5-HT2C Function Emax (%).
Setting [3] is: percentage of the response observed with a maximally effective concentration of 5-HT.

Read-outs that look alike come from different tables or passages of the source.

Usually EC50 stands for the midpoint of the concentration-response curve. What is called Ki is a measure of affinity in units of concentration, obtained from inhibition or displacement. As for `CNCC1Cc2cc(C)cc(-c3ccccc3Cl)c2O1` (racemic) [Example 476, (±)-{[7-(2-chlorophenyl)-5-methyl-2,3-dihydro-1-benzofuran-2-yl]methyl}methylamine], on human 5-HT2C receptor (setting [2]), the Emax was found to be 100%. In addition, the EC50 at human 5-HT2C receptor came to 5 nM. Moreover, the Ki in assay [1] amounted to 0.2 nM.
As for `COc1ccccc1-c1cccc2c1OC(CN)C2` (single isomer, unassigned; (+)) [Example 128, (+)-1-[7-(2-methoxyphenyl)-2,3-dihydro-1-benzofuran-2-yl]methanamine], the Emax at human 5-HT2C receptor (setting [2]) came to 70%. On human 5-HT2C receptor, the EC50 turned out to be 24 nM. Besides, the Ki in assay [1] stood at 41 nM.
On the same counts, the results for `NCC1Cc2cc(F)cc(-c3ccc(Cl)cc3)c2O1` (racemic) [Example 200, (±)-{[5-fluoro-7-(4-chlorophenyl)-2,3-dihydro-1-benzofuran-2-yl]methyl}amine] are 80%, 369 nM and 12 nM.
On the same counts, the results for `NCC1Cc2cccc(-c3ccc(Cl)cc3Cl)c2O1` (single isomer, unassigned; (-)) [Example 149, (−)-1-[7-(2,4-dichlorophenyl)-2,3-dihydro-1-benzofuran-2-yl]methanamine] are 100%, 0.97 nM and 0.15 nM.
With `Cc1cc2c(c(-c3ccccc3F)c1)OC(CN)C2` (racemic) [Example 283, (±)-{[7-(2-fluorophenyl)-5-methyl-2,3-dihydro-1-benzofuran-2-yl]methyl}amine], the Emax on human 5-HT2C receptor (setting [2]) came out at 100%. Moreover, the EC50 on human 5-HT2C receptor turned out to be 6 nM. Besides, in assay [1], the Ki is 1.2 nM.
`COc1cc2c(c(-c3ccc(Cl)cc3Cl)c1)OC(CN)C2` (racemic) [Example 365, (±)-{[7-(2,4-dichlorophenyl)-5-methoxy-2,3-dihydro-1-benzofuran-2-yl]methyl}amine]: on human 5-HT2C receptor (setting [2]), the Emax came out at 100%. Also, the EC50 on human 5-HT2C receptor amounted to 15 nM. Moreover, the Ki in assay [1] came out at 24 nM.
Regarding `NCC1Cc2cc(C(F)(F)F)cc(-c3cc(Cl)ccc3Cl)c2O1` (racemic) [Example 337, (±)-{[7-(2,5-dichlorophenyl)-5-(trifluoromethyl)-2,3-dihydro-1-benzofuran-2-yl]methyl}amine], the Emax on human 5-HT2C receptor (setting [2]) turned out to be 90%. On human 5-HT2C receptor, the EC50 was found to be 48 nM. Besides, the Ki in assay [1] stood at 34 nM.
With `NCC1Cc2cc(F)cc(-c3ccsc3)c2O1` (racemic) [Example 203, (±)-[(5-fluoro-7-thien-3-yl-2,3-dihydro-1-benzofuran-2-yl)methyl]amine], the Emax on human 5-HT2C receptor (setting [2]) is 80%. The EC50 on human 5-HT2C receptor was found to be 187 nM. Besides, the inhibition constant Ki in assay [1] was 8.5 nM.
As to `COc1cccc(-c2cccc3c2OC(CN)C3)c1` (racemic) [Example 68, (±)-1-[7-(3-methoxyphenyl)-2,3-dihydro-1-benzofuran-2-yl]methanamine], on human 5-HT2C receptor (setting [2]), the Emax was 90%. Further, the EC50 on human 5-HT2C receptor worked out at 144 nM. Further, in assay [1], the Ki amounted to 5 nM.
On to `CNCC1Cc2cccc(-c3cccc(OC)c3OC)c2O1` (racemic) [Example 423, (±)-[(N-methyl-1-[7-(2,3-dimethoxyphenyl)-2,3-dihydro-1-benzofuran-2-yl]methanamine], for which, at human 5-HT2C receptor (setting [2]), the Emax came out at 70%. At human 5-HT2C receptor, the EC50 was 28 nM. Moreover, in assay [1], the inhibition constant (Ki) is 6.1 nM.
As for `NCC1Cc2cccc(-c3ccc(Cl)cc3)c2O1` (single isomer, unassigned; (+)) [Example 77, (+)-1-[7-(4-chlorophenyl)-2,3-dihydro-1-benzofuran-2-yl]methanamine], the Emax at human 5-HT2C receptor (setting [2]) stood at 100%. Moreover, at human 5-HT2C receptor, the EC50 was 8 nM. In addition, the Ki in assay [1] turned out to be 2 nM.
On to `NCC1Cc2cc(Cl)cc(-c3cccnc3)c2O1` (racemic) [Example 266, (±)-{[(5-chloro-7-pyridin-3-yl-2,3-dihydro-1-benzofuran-2-yl)methyl]amine], for which, on human 5-HT2C receptor (setting [2]), the Emax is 90%. Besides, the EC50 on human 5-HT2C receptor is 3 nM. In assay [1], the Ki is 4.9 nM.
The like results for `Cc1cc2c(c(-c3c(C)cccc3C)c1)OC(CN)C2` (racemic) [Example 301, (±)-{[7-(2,6-dimethylphenyl)-5-methyl-2,3-dihydro-1-benzofuran-2-yl]methyl}amine] were, in that order, 90%, 31 nM and 2 nM.
As to `NCC1Cc2cccc(-c3cccc(Cl)c3)c2O1` (single isomer, unassigned; (-)) [Example 67, (−)-1-[7-(3-chlorophenyl)-2,3-dihydro-1-benzofuran-2-yl]methanamine], the EC50 at human 5-HT2C receptor turned out to be 5760 nM. Further, the “5-HT2C Function Emax (%)” value at human 5-HT2C receptor (setting [3]) was determined as 70%. For the same compound, the Ki in assay [1] was determined as 83 nM.
`CNCC1Cc2cc(F)cc(-c3ccc(Cl)cc3Cl)c2O1` (racemic) [Example 445, (±)-[7-(2,4-dichlorophenyl)-5-fluoro-2,3-dihydro-1-benzofuran-2-yl]methyl}methylamine]: the Emax at human 5-HT2C receptor (read-out: 5-HT2C Function Emax (%), percentage of the response observed with a maximally effective concentration of 5-HT) was 90%. Further, the EC50 on human 5-HT2C receptor was determined as 1 nM. Further, the Ki in assay [1] came to 0.48 nM.
`CNCC1Cc2cc(Cl)cc(-c3ccsc3)c2O1` (single isomer, unassigned; (+)) [Example 93, (+)-N-[(5-chloro-7-thien-3-yl-2,3-dihydro-1-benzofuran-2-yl)methyl]-N-methylamine]: the Emax at human 5-HT2C receptor (setting [2]) was found to be 80%. The EC50 at human 5-HT2C receptor was 874 nM. Moreover, the Ki in assay [1] was 13 nM.
The like results for `Cc1ccccc1-c1cccc2c1CC(CN)O2` (racemic) [Example 4, (±)-1-[4-(2-methylphenyl)-2,3-dihydro-1-benzofuran-2-yl]methanamine] were, in that order, 100%, 562 nM and 26 nM.
For `CNCC1Cc2cc(F)cc(-c3ccccc3Cl)c2O1` (racemic) [Example 439, (±)-{[5-fluoro-7-(2-chlorophenyl)-2,3-dihydro-1-benzofuran-2-yl]methyl}methylamine], at human 5-HT2C receptor (setting [2]), the Emax came to 90%. In addition, the EC50 on human 5-HT2C receptor was 6 nM. Besides, in assay [1], the Ki was found to be 0.45 nM.
Turning to `COc1cc2c(c(-c3ccccc3OC)c1)OC(CCN)C2` (racemic) [Example 554, (±)-{2-[7-(2-methoxyphenyl)-5-methoxy-2,3-dihydro-1-benzofuran-2-yl]ethyl}amine], the Emax at human 5-HT2C receptor (setting [2]) turned out to be 70%. In addition, the EC50 at human 5-HT2C receptor was found to be 2 nM. Further, the Ki in assay [1] worked out at 41 nM.
Take `NCC1Cc2cc(F)cc(-c3ccncc3)c2O1` (racemic) [Example 209, (±)-[(5-fluoro-7-pyridin-4-yl-2,3-dihydro-1-benzofuran-2-yl)methyl]amine]: at human 5-HT2C receptor (setting [2]), the Emax is 90%. Besides, at human 5-HT2C receptor, the EC50 turned out to be 57 nM. The Ki in assay [1] is 2.3 nM.
For `CCc1cc2c(c(-c3ccccc3Cl)c1)OC(CN)C2` (racemic) [Example 306, (±)-{[5-ethyl-7-(2-chlorophenyl)-2,3-dihydro-1-benzofuran-2-yl]methyl}amine], at human 5-HT2C receptor (setting [2]), the Emax amounted to 100%. In addition, the EC50 on human 5-HT2C receptor came out at 0.64 nM. Further, the Ki in assay [1] was determined as 0.58 nM.
`NCC1Cc2cc(Cl)cc(-c3ccc(Cl)cc3Cl)c2O1` (racemic) [Example 251, (±)-{[5-chloro-7-(2,4-dichlorophenyl)-2,3-dihydro-1-benzofuran-2-yl]methyl}amine]: on human 5-HT2C receptor (setting [2]), the Emax is 90%. The EC50 on human 5-HT2C receptor turned out to be 8 nM. In addition, the Ki in assay [1] came out at 0.38 nM.
As to `NCC1Cc2cccc(-c3cc(Cl)ccc3Cl)c2O1` (single isomer, unassigned; (+)) [Example 164, (+)-{[7-(2,5-dichlorophenyl)-2,3-dihydro-1-benzofuran-2-yl]methyl}amine], the EC50 at human 5-HT2C receptor worked out at 0.3 nM. Moreover, the “5-HT2C Function Emax (%)” value at human 5-HT2C receptor (setting [3]) was found to be 100%. The Ki in assay [1] was found to be 0.28 nM.
With `CNCC1Cc2cc(C)cc(-c3ccc(F)cc3)c2O1` (racemic) [Example 482, (±)-{[7-(4-fluorophenyl)-5-methyl-2,3-dihydro-1-benzofuran-2-yl]methyl}methylamine], at human 5-HT2C receptor (setting [2]), the Emax stood at 80%. Further, at human 5-HT2C receptor, the EC50 worked out at 143 nM. For the same compound, in assay [1], the Ki is 7 nM.
For `CNCC1Cc2cc(F)cc(-c3ccccc3C)c2O1` (racemic) [Example 440, (±)-{[5-fluoro-7-(2-methylphenyl)-2,3-dihydro-1-benzofuran-2-yl]methyl}methylamine], the Emax on human 5-HT2C receptor (setting [2]) was 100%. Also, on human 5-HT2C receptor, the EC50 was found to be 9 nM. Also, the Ki in assay [1] stood at 1.2 nM.
For `NCC1Cc2cc(F)cc(-c3ccccc3C(F)(F)F)c2O1` (single isomer, unassigned; (+)) [Example 152, (+)-1-{5-fluoro-7-[2-(trifluoromethyl)phenyl]-2,3-dihydro-1-benzofuran-2-yl}methanamine], on human 5-HT2C receptor, the EC50 was 202 nM. In addition, the “5-HT2C Function Emax (%)” value on human 5-HT2C receptor (setting [3]) is on record as 70%. The Ki in assay [1] worked out at 6.6 nM.
With `NCC1Cc2cccc(-c3cccnc3)c2O1` (single isomer, unassigned; (+)) [Example 171, (+)-{[7-pyridin-3-yl-2,3-dihydro-1-benzofuran-2-yl]methyl}amine], the Emax at human 5-HT2C receptor (setting [2]) came out at 100%. The EC50 at human 5-HT2C receptor turned out to be 0.7 nM. For the same compound, in assay [1], the Ki was 0.88 nM.
As to `COc1ccc(-c2cc(C)cc3c2OC(CN)C3)cc1` (racemic) [Example 293, (±)-{[7-(4-methoxyphenyl)-5-methyl-2,3-dihydro-1-benzofuran-2-yl]methyl}amine], the Emax on human 5-HT2C receptor (setting [2]) stood at 90%. Besides, the 50% effective concentration (EC50) at human 5-HT2C receptor was 7 nM. Further, in assay [1], the Ki is 3.8 nM.
